From paper PMC7641127, “MCL1 binds and negatively regulates the transcriptional function of tumor suppressor p73” (Cell Death & Disease, 2020) come the findings set out here.

Like-named read-outs stand apart in the source and are kept apart here. No end group written: not given here.

Data set [1] concerns the target T1, recombinant MCL1 (Homo sapiens, UniProt Q07820).
T1 construct: made in house; host or cells: E. coli BL21 (DE3)
Put plainly: Competitive fluorescence polarization assay (FPA), MCL1 with F-BAK probe. The data set is classed as binding. An excerpt:
(§1) We next sought to determine which core domain, the DBD or the TD, of p73 mediates binding to MCL1. […] Therefore, we expressed and purified recombinant p73DBD and tested its ability to associate with MCL1 using competitive fluorescence polarization assay (FPA) analysis and NMR chemical shift perturbation (CSP) studies (Fig. 2a, Supplementary Fig. 1). FPA is a biochemical assay that can either determine the binding constant between a recombinant protein and a fluorescently labeled small molecule or peptide (i.e. direct FPA as a measure of KD) or it can determine the concentration in which an unknown binding partner can compete with bound fluorescently labeled ligand (competitive FPA as a measure of IC50).
In a flat-bottom, untreated black 96-well microplate (ThermoScientific), 80 μL recombinant protein is incubated with 10 μL 10× unlabeled peptide or small molecule inhibitor shaking at 300 rpm for 20 min to allow for binding. Once complete, 10 μL of 10× FITC-peptide is added per well. The plate is covered with an opaque lid to shake for an additional 40 min. After 1 h incubation is complete, the plate is read using the FP-Fluorescein setting (1.0 s, CW lamp filter—F485, emission filter, F535) on a Perkin Elmer Victor X5 plate reader. The buffer used for all assays is 1× PBS, pH 7.4. All experiments were completed in technical and biological triplicate. All data plotted in Fig. 2 is one representative assay in technical triplicate.
On the technique in general: In fluorescence polarisation assays a small probe gives low polarisation when free and higher when bound to something large.

The test system of data set [2] is PC-3 cells. In words: Annexin V/PI staining with FACS. The data set is classed as cell-based, human. The conditions noted are these: N=4. The procedure:
Cells were seeded in a six-well plate and treated through various treatments to modulate MCL1 or p73 expression as they were in previous experiments. After the 24 or 48 h treatment, cells were collected through trypsin dissociation and washed twice with sterile DPBS. Cell number was counted on a BioRad Automated Cell Counter. After final wash, cells were pelleted at 1000×g for 10 min. The cell pellet was resuspended in 1× Annexin V binding buffer (BD Pharmingen, 556454) and 5 × 10^5 cells were transferred to a FACS tube containing 5 μL propidium iodide (PI) staining solution (BD Pharmingen, 51-66211E) and 5 μL FITC-Annexin V (BD Pharmingen, 556419). Cells were incubated for 15 min in the dark. FACS was collected on a BD LSRFortessa and analyzed using FlowJo v10. Compensation controls used for analysis include unstained cells and cells stained for each individual fluorophore (FITC-Annexin V and Cy5-PI). Gating strategy eliminated cell debris and doublets through forward and side scatter plots.
Supplemental Fig 3. […] Cells were stained with Annexin V and Propidium Iodide (PI) to determine the apoptotic cell population. […] All plots shown here are representative plots of the data set, N=4.

Another data set deals with H1299 cells. In words: TaqMan RT-qPCR of p73 target genes in H1299. The conditions noted are these: 24 h, normalized to GAPDH, biological and technical triplicate. The class given is cell-based, human. On the technique in general: In qPCR the cycle at which signal appears reflects the starting amount.
Data set [3] deals with PC-3 cells. Put plainly: TaqMan RT-qPCR of p73 target genes in PC-3. The data set is classed as cell-based, human. To be noted: normalized to GAPDH, biological and technical triplicate.
Description: All RT-qPCR reactions were performed in biological triplicate. A master mix for each target or housekeeping gene was made with 15 μL RNAse-free water, 3 μL 20× RT-qPCR Primer Mix (ThermoScientific), 12 μL 25 ng/μL cDNA, and 30 μL TaqMan Universal Master Mix II, with UNG (Applied Biosystems, 2020-02-29). The mix was aliquoted out 20 μL/well in technical triplicate with the final concentration of cDNA at 100 ng/reaction. PCR reactions were performed on an Applied Biosystems ViiA 7 Real-Time PCR System for 40 cycles starting at 25 °C. Each cycle is 50 °C for 2 min, 95 °C for 10 min, and 15 s, and 60 °C for 1 min. Temperature shifts at 1.6 °C/s. All data are collected and analyzed using Applied Biosystems QuantStudio Real-Time PCR Software. All target genes analyzed were normalized to GAPDH. All primers had FAM-MGB probes. All TaqMan primers were ordered from ThermoFisher Scientific with the target gene and Assay ID included: CDKN2A/p21 (Hs00355782_m1), PMAIP1/NOXA (Hs00560402_m1), GADD45A (Hs00169255_m1), BBC3/PUMA (Hs00248075_m1), GAPDH (Hs02758991_g1).
Four known p73 target genes were analyzed by TaqMan RT-qPCR. After a baseline was established, cells were treated with b an siRNA targeting MCL1 or c 2 μM MCL1 inhibitor A1210477. […] All experiments were performed in biological and technical triplicate. Bar graphs shown with SEM of one representative assay. […]
Another data set has as its system 15N MCL1. Put plainly: 2D [15N,1H]-HSQC NMR chemical shift perturbation of 15N MCL1. The data set is classed as binding, human. To be noted: 50 μM 15N MCL1 + 200 μM ligand; 1x PBS pH 6.8; significant CSP = >2SD above mean (0.046 ppm). The procedure: Fig. 3 P73 binds to the BH3-binding groove of MCL1. a 2D [^15N, ^1H]-HSQC spectra of 50 μM ^15N MCL1 + 2% DMSO (black contours) or 50 μM ^15N MCL1 + 200 μM p73_23mer TD-derived peptide (red contours). Amino acids with significant CSP (Δδ > 0.046 ppm: G217, F228, N239, D241, D242, H252, I264, V265, L267, I268, E292, L298, V299, T301, D304, and H320) or residues that were unable to be identified in the bound spectra (V216, G219, V220, V243, […], S247, R263, G271, R303, K308, and F315) are labeled for reference. b CSP quantified as a function of Δδ ppm for each amino acid residue. The first dotted line indicates 1SD from the mean (0.023) and the solid line indicates 2SD from the mean (0.046). Amino acids with significant CSP were identified as >2SD above the mean (blue). Amino acids that were unable to be identified in the bound spectra were set to −0.01 to differentiate them from peaks with no CSP (red). […]
The NMR HSQC spectra were acquired using a Bruker 600 MHz magnet at the Central Alabama High Field NMR Facility. […] The resulting spectra were analyzed using Computer-Aided Resonance Assignment (CARA) and the peak lists were exported to Microsoft Excel for the CSP quantification and calculation of the mean and standard deviation. […]
Supplemental Fig 1. […] The two cut offs represent the 1 and 2 SD cut offs determined through the 50 µM 15N hMCL1 + 200 µM p7323mer spectra in Fig 2.

In data set [4] the target is T1, recombinant MCL1. In words: Direct FPA of FITC-labeled peptides with MCL1. The data set is classed as binding. The conditions noted are these: N-terminally FITC-labeled peptide with recombinant MCL1; 1x PBS pH 7.4; 30 min; at or approaching limit of detection of probe.
From the text: as §1
The buffer used for all assays is 1× PBS, pH 7.4. All experiments were completed in technical and biological triplicate.

Data set [5] deals with PC-3 cells. In words: Cellular fractionation and western blot after cisplatin. To be noted: low dose (printed 5 mM), 24 hours, vs 0.5% DMF, western blot. The data set is classed as cell-based, human. As to the method:
Cellular localization was performed using the NE-PER Nuclear and Cytoplasmic Extraction Reagent Kit (ThermoScientific, 78833) per the manufacturer’s protocol. The western blot quantification analysis was completed in the Image Lab 6.0.1 software using the Adjusted Volume tool. All assays were completed in biological triplicate with one representative image for each treatment group and/or cell line.
Cells were fractionated in cytosolic and nuclear compartments. Protein localization was analyzed through Western Blot analysis. Lamin A/C and GAPDH were used for fractionation controls. Band quantifications using the adjusted volume for each individual band are below for reference. All paired samples are normalized to the WCL treated with DMF alone.

Setting [6] is: competitive FPA, 50 nM recombinant MCL1, 10 nM F-BAK, unlabeled peptide titration, 1x PBS pH 7.4, 20 min pre-incubation + 40 min, mean ± SD, biological and technical triplicate, read-out: FPA IC50.

T1 sequence (Q07820 whole entry): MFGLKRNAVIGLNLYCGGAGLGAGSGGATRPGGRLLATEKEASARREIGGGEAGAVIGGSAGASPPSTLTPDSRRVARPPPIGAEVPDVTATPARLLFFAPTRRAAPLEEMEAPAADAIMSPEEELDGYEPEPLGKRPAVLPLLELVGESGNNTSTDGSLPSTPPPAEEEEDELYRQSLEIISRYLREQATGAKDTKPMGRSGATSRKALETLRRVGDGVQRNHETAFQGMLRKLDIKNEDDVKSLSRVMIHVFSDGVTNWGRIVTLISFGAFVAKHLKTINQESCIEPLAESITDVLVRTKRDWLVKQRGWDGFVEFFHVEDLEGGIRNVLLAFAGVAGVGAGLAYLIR
Description for H1299 cells: Four known p73 target genes were analyzed by TaqMan RT-qPCR. After a baseline was established, H1299 cells were treated with b an siRNA targeting MCL1 (48 h) or c 2 μM MCL1 inhibitor A1210477 (24 h). […] All experiments were performed in biological and technical triplicate. Bar graphs shown with SEM of one representative assay. A Student’s t-test was applied to each target gene for each treatment for statistical analysis, p-values: *p < 0.05, **p < 0.01, ***p < 0.001, ****p < 0.0001.
RNA was purified from human cancer cell lines for RT-qPCR with the SurePrep TrueTotal RNA Purification Kit (Fisher BioReagents, BP2800-50) by the manufacturer’s protocol. The final concentration of purified RNA was measured using a Nanodrop 2000c spectrophotometer. Once RNA concentration was determined, a single step cDNA synthesis reaction was made in TempAssure PCR 8-Tube Strips (USA Scientific, 1402-2500) in technical duplicate as follows: 100 ng RNA, 16 μL nuclease-free water (Ambion, 1512103), and 4 μL qScript cDNA SuperMix (Quanta BioSciences Inc., 84034). […] Concentration was determined after the cDNA synthesis on the Nanodrop 2000c spectrophotometer. cDNA was diluted to 25 ng/μL into Molecular Biology Grade Water (Corning, 46-000-CM) and stored at −20 °C for future use. […]
All RT-qPCR reactions were performed in biological triplicate. […] All target genes analyzed were normalized to GAPDH. […]

What is called IC50 is the midpoint of a concentration-inhibition curve. For the compound `Cc1nn(C)c(COc2ccc(N3CCN(S(=O)(=O)N(C)C)CC3)cc2)c1-c1cccc2c(CCCOc3cccc4ccccc34)c(C(=O)O)n(CCN3CCOCC3)c12` [A1210477], the half-maximal inhibitory concentration (IC50) at recombinant MCL1 [1] was 2590 nM. In addition, the “Apoptotic induction, Annexin V/PI” value in the data set on PC-3 cells [2] (2 μM, 24 hours, vs 0.5% DMSO) was “no increase in apoptotic induction”. Moreover, the “p73 target gene expression (p21, NOXA, GADD45, PUMA)” value in the data set on H1299 cells (2 μM) and in the data set on PC-3 cells [3] (2 μM) was “significant increases in gene expression in at least three of the four p73 target genes” throughout.
For the compound “p73DBD: recombinant p73 DNA-binding domain alone, amino acids 112–311”, the “Association with MCL1 in competitive FPA” value with recombinant MCL1 [1] (50 nM recombinant MCL1, 10 nM F-BAK, titration of unlabeled protein) is reported as “Neither NMR nor competitive FPA analysis exhibited significant changes”. For the same compound, the “Chemical shift perturbation of MCL1” value in the data set on 15N MCL1 is reported as “No amino acids in this spectra exhibited significant shifts”.
As for VPQPLVDSYRQQQQLLQR-NH2 [α2], at recombinant MCL1 [1] (setting [6]), the half-maximal inhibitory concentration (IC50) is greater than 10000 nM.
Take DEDTYYLQVR-NH2 [β1]: the IC50 at recombinant MCL1 [1] (setting [6]) was greater than 10000 nM.
The Kd is the equilibrium constant for the complex coming apart. With GRENFEILMKLKESLELMELVPQ-NH2 [p73_23mer], at recombinant MCL1 [1] (competitive FPA, 50 nM recombinant MCL1, 10 nM F-BAK, unlabeled peptide titration, 1x PBS pH 7.4, 20 min pre-incubation + 40 min, mean ± SD, biological and technical triplicate, SD, read-out: FPA IC50), the IC50 was determined as 982 ± 195 nM. The Kd at recombinant MCL1 [4] was no more than 5 nM.
For `N.N.[Cl][Pt][Cl]` [cisplatin], the “Apoptosis, Annexin V/PI, positive control” value in the data set on PC-3 cells [2] (50 µM) is given as “significant increase in apoptosis”. For the same compound, the “p73 target gene expression (p21, NOXA, GADD45, PUMA)” value in the data set with H1299 cells (10 μM) is listed as “statistically significant increases in expression in at least three of the four p73 target genes”; in the data set with PC-3 cells [3] (5 μM, 24 h), “statistically significant increases in expression in at least three of the four p73 target genes”. In addition, in the data set with PC-3 cells [5], the “MCL1 protein levels in cytoplasmic and nuclear fractions” value was “increase MCL1 levels in both the cytoplasmic and nuclear compartments”.
